Patent publication US11136295B2, “D-amphetamine compounds, compositions, and processes for making and using the same” (KemPharm, Inc., priority 2018, dated 2021)

Experiments:
[1] = Oral pharmacokinetic study in rats (plasma amphetamine by LC-MS/MS); type: in vivo; details: d-amphetamine in plasma; rat, oral gavage, 5.6 μmol/kg; 6-hour time course
Experimental: Conjugates of d-amphetamine, and d-amphetamine sulfate or lisdexamfetamine dimesylate comparator compound were dissolved in an appropriate vehicle and administered in rats via oral gavage at doses of 5.6 μmol/kg. Whole blood samples were collected via retro-orbital bleeding at 0.25, 0.5, 1, 2, 4, and optionally at 3 and 6 hours postdose. Blood samples were centrifuged and the resulting plasma samples were collected for analysis of amphetamine concentrations by LC-MS/MS.

[2] = Intravenous pharmacokinetic study in rats (tail vein; plasma d-amphetamine by LC-MS/MS); type: in vivo, rat; details: for AUC0-2 hr / Cmax / Tmax: d-amphetamine in plasma, rat, intravenous (tail vein), 5.6 μmol/kg, sampled to 2 hours
Experimental: Conjugates of d-amphetamine, and d-amphetamine sulfate or lisdexamfetamine dimesylate comparator compound were dissolved in an appropriate vehicle and administered in rats at doses of 5.6 μmol/kg by injecting the solution into the tail vein. Whole blood samples were collected via retro-orbital bleeding at 5 minutes and at 0.25, 0.5, 1 and 2 hours postdose. Blood samples were centrifuged and the resulting plasma samples were collected for analysis of […] concentrations by LC-MS/MS.

[3] = Intranasal pharmacokinetic study in rats (plasma amphetamine by LC-MS/MS); type: in vivo; details: d-amphetamine in plasma, rat, 4-hour time course

Compound `CCOC(=O)C(C)NC(=O)c1cc[n+](COC(=O)N[C@@H](C)Cc2ccccc2)cc1` (stereo partly drawn) [AMP-CO2CH2-isonicotinoyl-Ala-OEt, d-amphetamine-CO2CH2-isonicotinoyl-alanine ethyl ester] has an AUC0-4 hr [1] of 72.8 ng·h/mL, an AUC0-6 hr [1] of 105.7 ng·h/mL and a Cmax [1] of 28.5 ng/mL. It also gave a Tmax [1] of 120 min, an AUC0-2 hr [2] of 32.4 ng·h/mL and a Cmax [2] of 24.7 ng/mL. For the same compound, the Tmax [2] was 31.2 min.
Compound “d-amphetamine-CO2CH2-isonicotinate ethyl ester [AMP-CO2CH2-isonicotinate(Et)]” has an AUC0-1 hr [3] of 8.6 ng·h/mL, an AUC0-4 hr [3] of 32.6 ng·h/mL and a Cmax [3] of 11.1 ng/mL. It also gave a Tmax [3] of 37.8 min, an AUC0-4 hr [1] of 75.4 ng·h/mL and an AUC0-6 hr [1] of 106.6 ng·h/mL. The Cmax [1] was 26.0 ng/mL, the Tmax [1] was 90 min and the AUC0-2 hr [2] was 26.5 ng·h/mL. The Cmax [2] was 18.8 ng/mL and the Tmax [2] was 43.2 min.
With `C[C@@H](Cc1ccccc1)NC(=O)OC[n+]1ccc(C(=O)O)cc1` [AMP-CO2CH2-isonicotinate, d-amphetamine-CO2CH2-isonicotinate] the melting point was 168 to 170 °C.
With `CC(C)[C@H](NC(=O)c1cc[n+](COC(=O)N[C@@H](C)Cc2ccccc2)cc1)C(N)=O` [AMP-CO2CH2-isonicotinoyl-Val-NH2, d-amphetamine-CO2CH2-isonicotinoyl-valinamide] the “exposure to d-amphetamine after intravenous administration compared to the nicotinoyl analogue” value ([2]; intravenous, compared to AMP-CO2CH2-nicotinoyl-Val-NH2, FIG. 32) was “decreases exposure to d-amphetamine”.
